# Results: patent US12187709B2 (Genentech, Inc., priority 2021, dated 2025)
# Experiments:
# Cbl-b = Cbl-b (Homo sapiens (Human), UniProt Q13191); test: Cbl-b LCK Ub TR-FRET assay (Cbl-b Lck HTRF); format: biochemical; details: for IC50: Cbl-b LCK Ub TR-FRET; for fold-selectivity (Cbl-b over C-cbl) / (fold-selectivity) Cbl-b and C-Cbl Selectivity: ratio C-cbl Lck HTRF IC50 / Cbl-b Lck HTRF IC50
# In short: (§1)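 Signal is read once the detection mix has stood 20 min at ambient temperature. Curves are anchored by DMSO as maximum and by omission of LCK as minimum.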
# c-Cbl = c-Cbl (Homo sapiens (Human), UniProt P22681); test: C-Cbl LCK Ub TR-FRET assay (C-cbl Lck HTRF); format: biochemical
# c-Cbl, sequence (P22681 47-435): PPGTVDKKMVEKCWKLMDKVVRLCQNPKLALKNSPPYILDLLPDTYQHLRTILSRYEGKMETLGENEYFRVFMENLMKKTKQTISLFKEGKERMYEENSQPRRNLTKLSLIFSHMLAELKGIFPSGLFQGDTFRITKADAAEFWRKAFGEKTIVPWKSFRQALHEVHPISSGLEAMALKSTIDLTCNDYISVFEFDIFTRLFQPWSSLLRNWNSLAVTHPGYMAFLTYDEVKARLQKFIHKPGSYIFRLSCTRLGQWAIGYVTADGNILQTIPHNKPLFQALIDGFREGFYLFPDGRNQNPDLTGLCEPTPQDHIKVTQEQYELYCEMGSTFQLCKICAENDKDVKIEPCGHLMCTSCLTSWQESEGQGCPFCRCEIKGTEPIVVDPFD
# In short: as §1
# [1] = molecular target: Human Cbl-b (residues 40-426) (Homo sapiens (Human), UniProt Q13191); test: Cbl-b SPR assay; format: binding; details: for Fold of selectivity: C-cbl SPR Kd vs Cbl-b SPR Kd; for Kd: SPR, 20° C.
# Human Cbl-b (residues 40-426), sequence (Q13191 40-426): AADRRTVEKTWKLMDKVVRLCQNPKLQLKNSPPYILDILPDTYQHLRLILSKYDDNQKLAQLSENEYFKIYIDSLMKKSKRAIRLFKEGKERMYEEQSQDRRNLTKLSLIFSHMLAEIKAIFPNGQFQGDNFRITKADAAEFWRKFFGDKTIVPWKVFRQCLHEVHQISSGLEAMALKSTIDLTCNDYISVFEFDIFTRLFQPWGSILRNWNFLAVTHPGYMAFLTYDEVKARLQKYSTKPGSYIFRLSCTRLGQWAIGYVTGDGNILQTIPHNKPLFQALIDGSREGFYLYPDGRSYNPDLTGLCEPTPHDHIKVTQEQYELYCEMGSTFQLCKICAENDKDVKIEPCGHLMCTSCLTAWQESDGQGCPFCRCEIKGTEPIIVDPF
# In short: (§2)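 Values derive from a 1:1 model fitted to multicycle kinetics on captured protein (1300-1500 RU), using six 2-fold concentrations, 60 s contact and dissociation of 120-1200 s. In the chaser format, kd comes from a single-exponential fit of % site occupancy over time.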
# c-Cbl (residues 47-435) = c-Cbl (residues 47-435) (Homo sapiens (Human), UniProt P22681); test: c-Cbl SPR assay; format: binding; details: 20° C.
# c-Cbl (residues 47-435), sequence (P22681 47-435): as the sequence (P22681 47-435) above
# In short: as §2
# Cbl-b, sequence (Q13191 40-426): as the sequence (Q13191 40-426) above
IC50 (Cbl-b),fold-selectivity (Cbl-b over C-cbl) (Cbl-b),IC50 (c-Cbl),Fold of selectivity [1],Kd [1],Kd (c-Cbl (residues 47-435)),IC50 (Cbl-b; Example 121),(fold-selectivity) Cbl-b and C-Cbl Selectivity (Cbl-b),Structure (SMILES)
6.5 nM,(0.9x),5.9 nM,1.5×,0.36 nM,0.53 nM,–,–,"Cn1cnnc1[C@]1(c2cc(NC3CCC3)nc(N3Cc4c(cc(CNC5(C)CCC5)cc4C(F)(F)F)C3=O)c2)C[C@H](C)C1 [Compound 67, 2-(6-(cyclobutylamino)-4-((1S,3S)-3-methyl-1-(4-methyl-4H-1,2,4-triazol-3-yl)cyclobutyl)pyridin-2-yl)-6-(((1-methylcyclobutyl)amino)methyl)-4-(trifluoromethyl)isoindolin-1-one]"
11 nM,1.8x,21 nM,5.2×,3.3 nM,17 nM,–,–,"CCOc1cc(N2Cc3c(cc(CNC4(C)CCC4)cc3C(F)(F)F)C2=O)cc([C@]2(c3nncn3C)C[C@H](OC)C2)c1 [Compound 202, 2-(3-ethoxy-5-((1r,3r)-3-methoxy-1-(4-methyl-4H-1,2,4-triazol-3-yl)cyclobutyl)phenyl)-6-(((1-methylcyclobutyl)amino)methyl)-4-(trifluoromethyl)isoindolin-1-one]"
–,–,25 nM,11×,1.8 nM,20 nM,8.3 nM,3.1x,"CO[C@H]1C[C@](c2cccc(N3Cc4c(cc(CNC5CC(C(F)F)C5)cc4C(F)(F)F)C3=O)c2)(c2nncn2C)C1 (stereo partly drawn) [Compound 494, 6-(((3-(difluoromethyl)cyclobutyl)amino)methyl)-2-(3-((1r,3r)-3-methoxy-1-(4-methyl-4H-1,2,4-triazol-3-yl)cyclobutyl)phenyl)-4-(trifluoromethyl)isoindolin-1-one]"
9.1 nM,1.4x,13 nM,8.5×,2.9 nM,28 nM,–,–,"Cn1cnnc1C(F)(c1cccc(N2Cc3c(cc(CNC4(C)CCC4)cc3C(F)(F)F)C2=O)c1)C1COC1 (single isomer, unassigned) [Compound 150]"
11 nM,0.99x,10 nM,3.2×,1.3 nM,4.2 nM,–,–,"CO[C@H]1C[C@](c2cc(C3CC3)cc(N3Cc4c(cc(CNC5(C)CCC5)cc4C(F)(F)F)C3=O)c2)(c2nncn2C)C1 [Compound 226, 2-(3-cyclopropyl-5-((1r,3r)-3-methoxy-1-(4-methyl-4H-1,2,4-triazol-3-yl)cyclobutyl)phenyl)-6-(((1-methylcyclobutyl)amino)methyl)-4-(trifluoromethyl)isoindolin-1-one]"
11 nM,(4.9x),54 nM,6.9×,3.3 nM,23 nM,–,–,"CO[C@H]1C[C@@](c2cc(NC3CCCC3)nc(N3Cc4c(cc(CNC5(C)CCC5)cc4C(F)(F)F)C3=O)c2)(c2nncn2C)C1 [Compound 69, 2-(6-(cyclopentylamino)-4-((1S,3S)-3-methoxy-1-(4-methyl-4H-1,2,4-triazol-3-yl)cyclobutyl)pyridin-2-yl)-6-(((1-methylcyclobutyl)amino)methyl)-4-(trifluoromethyl)isoindolin-1-one]"
64 nM,4.4x,290 nM,14×,11 nM,150 nM,–,–,"CO[C@H]1C[C@@](c2cc(NC3COC3)cc(N3Cc4c(cc(CNC5(C)CCC5)cc4C(F)(F)F)C3=O)c2)(c2nncn2C)C1 [Compound 243, 2-(3-((1s,3s)-3-methoxy-1-(4-methyl-4H-1,2,4-triazol-3-yl)cyclobutyl)-5-(oxetan-3-ylamino)phenyl)-6-(((1-methylcyclobutyl)amino)methyl)-4-(trifluoromethyl)isoindolin-1-one]"
–,–,50 nM,7.7×,10 nM,77 nM,9.4 nM,5.2x,"CO[C@H]1C[C@](c2cccc(N3Cc4c(cc(CNC5CCC5)cc4C(F)(F)F)C3=O)c2)(c2nncn2C)C1 [Compound 414, 6-((cyclobutylamino)methyl)-2-(3-((1r,3r)-3-methoxy-1-(4-methyl-4H-1,2,4-triazol-3-yl)cyclobutyl)phenyl)-4-(trifluoromethyl)isoindolin-1-one]"
13 nM,1.4x,17 nM,9.1×,1.6 nM,15 nM,–,–,"COC[C@H]1C[C@](c2cccc(N3Cc4c(cc(CNC5(C)CCC5)cc4C(F)(F)F)C3=O)c2)(c2nncn2C)C1 [Compound 104, 2-(3-((1r,3r)-3-(methoxymethyl)-1-(4-methyl-4H-1,2,4-triazol-3-yl)cyclobutyl)phenyl)-6-(((1-methylcyclobutyl)amino)methyl)-4-(trifluoromethyl)isoindolin-1-one]"
8.3 nM,5.0x,42 nM,7.8×,48 nM,380 nM,–,–,"Cn1cnnc1[C@]1(c2cccc(N3Cc4c(cc(CNC5(C)CCC5)cc4C(F)(F)F)C3=O)c2)C[C@@H](OCF)C1 [Compound 371, 2-(3-((1r,3r)-3-(fluoromethoxy)-1-(4-methyl-4H-1,2,4-triazol-3-yl)cyclobutyl)phenyl)-6-(((1-methylcyclobutyl)amino)methyl)-4-(trifluoromethyl)isoindolin-1-one]"
12 nM,1.0x,12 nM,4.1×,21 nM,87 nM,–,–,"Cn1cnnc1[C@]1(c2cccc(N3Cc4c(cc(CNC5(C)CCC5)cc4C(F)(F)F)C3=O)c2)C[C@H](CC#N)C1 [Compound 88, 2-((1s,3s)-3-(4-methyl-4H-1,2,4-triazol-3-yl)-3-(3-(6-(((1-methylcyclobutyl)amino)methyl)-1-oxo-4-(trifluoromethyl)isoindolin-2-yl)phenyl)-cyclobutyl)acetonitrile]"
22 nM,(1.6x),35 nM,3.0×,1 nM,3 nM,–,–,"CC(C)[C@H]1CN(C)CCN1Cc1cc2c(c(C(F)(F)F)c1)CN(c1cc([C@]3(c4nncn4C)C[C@H](C)C3)cc(OC3CCCC3)n1)C2=O (single isomer, unassigned) [Compound 73]"
27 nM,1.5x,41 nM,1.5×,37 nM,56 nM,–,–,"Cn1cnnc1[C@@](O)(c1cccc(N2Cc3c(cc(CNC4(C)CCC4)cc3C(F)(F)F)C2=O)c1)C(F)(F)F (single isomer, unassigned) [Compound 308]"
14 nM,1.7x,26 nM,7.8×,1.6 nM,12 nM,–,–,"COC[C@H]1C[C@@](c2cccc(N3Cc4c(cc(CNC5(C)CCC5)cc4C(F)(F)F)C3=O)c2)(c2nncn2C)C1 [Compound 103, 2-(3-((1s,3s)-3-(methoxymethyl)-1-(4-methyl-4H-1,2,4-triazol-3-yl)cyclobutyl)phenyl)-6-(((1-methylcyclobutyl)amino)methyl)-4-(trifluoromethyl)isoindolin-1-one]"
